This note sets out measurements from publication PMC5472302, “Dicumarol inhibits PDK1 and targets multiple malignant behaviors of ovarian cancer cells” (PLoS ONE, 2017).

The assay has as its target Pyruvate dehydrogenase kinase 1 (PDK1) (Homo sapiens, UniProt Q15118). The experiment in a line: ELISA-based in-well kinase assay: active PDK1 (Abcam) phosphorylating captured PDHA1 at Ser232. The format is biochemical. Background: In an ELISA, binding on a coated surface is turned into a signal by an enzyme label.

Pyruvate dehydrogenase kinase 1 (PDK1), sequence (Q15118 29-436): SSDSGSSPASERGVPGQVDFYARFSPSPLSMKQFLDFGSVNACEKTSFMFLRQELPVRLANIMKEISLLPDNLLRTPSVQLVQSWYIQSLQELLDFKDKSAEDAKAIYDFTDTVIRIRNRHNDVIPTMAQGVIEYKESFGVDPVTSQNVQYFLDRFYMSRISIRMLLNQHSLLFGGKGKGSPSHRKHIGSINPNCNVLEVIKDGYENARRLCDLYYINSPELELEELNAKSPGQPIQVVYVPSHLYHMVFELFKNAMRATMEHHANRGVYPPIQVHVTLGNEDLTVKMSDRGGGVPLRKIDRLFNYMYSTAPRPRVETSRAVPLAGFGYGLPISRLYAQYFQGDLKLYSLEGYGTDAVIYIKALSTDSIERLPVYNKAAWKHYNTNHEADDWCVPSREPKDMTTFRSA

What is called IC50 is the concentration at which inhibition is half-maximal. Consider `O=c1oc2ccccc2c(O)c1Cc1c(O)c2ccccc2oc1=O` [DIC, dicumarol], for which half-maximal inhibition (IC50) required 19.42 ± 0.032 µM.
